For data set [1], the system named is human LECs-CCCs freshly removed from cataract operation. Nature of the data set: In situ treatment of LECs attached to capsulorhexis lens capsule (LECs-CCC). The format is cell-based. Here is the method:
The in situ effects of a treatment solution comprising dihydrochlorothiazide (DHCT) (a cotransport interference agent from the group of the thiazide and related diuretics) and hyperosmotic NaCl on human LECs is examined. The treatment is tested on LECs that are still attached to a continuous curvilinear capsulorhexis lens capsule (LECs-CCC) which are freshly removed from a human cataract operation.
The LECs-CCCs are obtained from a cataract operation and immediately put in freshly prepared Eagle's Minimum Essential Medium (MEM) supplemented with 2 mM glutamine, 25 mmol/L Hepes (pH 7.4) without foetal cow serum (FCS) and is transferred to the laboratory for evaluation. Viable LECs are identified by staining the LECs-CCCs for five minutes with 0.2% Trypan Blue. The sheets containing more than 70% viable LECs are used to assess the efficacy of the treatment. […]
In the first step, a hyperosmotic solution of NaCl is prepared by making a stock solution of 2 M NaCl by adding 58.44 g NaCl (supplied by Sigma Chemical Co., U.S.) to 500 ml dH2O. The desired concentration of osmotic NaCl is prepared by diluting the 2M stock solution with dH2O. For example, to make a hyperosmotic solution of 170 mM NaCl, the 2M NaCl stock solution was diluted with dH2O at a ratio of […]. To make a hyperosmotic solution of 200 mM NaCl, the 2M NaCl stock solution is diluted with dH2O at a ratio of 1 to 9. Final osmolarities (mOsm/kg/H2O) are determined by a freezing point depression method using cryoscopic osmometry.
In the second step, DHCT stock solution is made by adding 25 mg DHCT to 1 ml dH2O. […]
The treatment is applied by exposing the LECs-CCCs for five minutes in a small petri dish containing the treatment solution. The treatment solution is removed after five minutes exposure by a syringe and then the fresh PBS is added in the petri dish to wash away the treatment solution. The LECs-CCCs are washed three times. The changes of the LECS are monitored under a microscope. Microscope photographs are taken at 0, 2 and 5 minutes and after wash.

Another data set deals with in vivo rabbit eyes. Briefly: In vivo prevention of PCO after cataract operation in rabbit eyes. The note with it: DHCT and hyperosmotic NaCl. Here is the method:
The experimental group includes sixteen rabbit eyes and the control group includes four rabbit eyes. A sham cataract operation is performed on the control animals. The therapy is introduced to the others.
The pupil of each rabbit eye is preoperatively dilated with topical G Phenylephrine 10% (Alcon Labs., Inc., China) and G Cyclopentolate 1% (Bausch & Lomb Pharm., Inc., USA) three times in one hour. The rabbits are anesthetized with ketamine hydrochloride (5 mg kg-1) and xylazine hydrochloride (2 mg kg-1) and placed on an operating table. A topical anesthetic (Dieaine hydrochloride 1%) is used every five minutes on two occasions. A wire lid speculum is placed to hold the eyelids open.
A 3.2 mm scleral tunnel incision into the eye is formed at the temporal limbus. The anterior chamber is maintained with viscoelastic substances and a 4-5 mm diameter continuous curvilinear capsularhexis (CCC) is made on the anterior surface of the lens to open its bag. The treatment solution is first introduced in the LECs by hydrodissection. This ensures that the treatment fluid immediately reaches under the entire anterior capsule/LECs. This process allows for (i) separation of the lens cortex from the capsule and lens epithelium, making removal of the lens cortex easier at a later stage of the operation and (ii) the LECs to be exposed to the treatment for enough time (more than five minutes in total time).
The crystalline lens is then removed using phacoemulsification (Universal II, Alcon Labs., Inc., China). The remaining cortex is aspirated thoroughly and removed as completely as possible to expose the LECs. The lens capsular bag is then partially filed with viscoelastic material in order to maintain its shape. The viscoelastic material should not cover the LECs when the treatment solution is applied.
The treatment is spread over the inner surface of the anterior capsular bag (where the LECs attach). The anterior capsular is continuously filled by using a syringe with a bent needle. Care is taken not to over flow the bag. After the treatment solution covered the capsule bag, it is left for five minutes and then removed using a syringe.
In a few cases, IOLs are inserted. […] At the same time, the incision is enlarged to 6.0 mm and a posterior ocular lens (IOLs) (poly-methyl methacrylate, PMMA) with a 6.5 mm optic is prepared and placed into the capsular bag.
The wound is closed with or without suture.
At the completion of the surgical procedure, each rabbit eye receives subconjunctival dexamethasone (0.25 ml) and gentamicin (0.25 ml). Postoperatively, atropine sulphate 1% ophthalmic solution and neomycin sulphate-polymyxin sulphate-dexamethasone ophthalmic ointment are administered twice daily for three weeks.
The animals are evaluated for three weeks and ten weeks. […] All rabbits are evaluated by slitlamp and scored for ocular responses at 1 day and at 1, 2 and 3 weeks. (See FIG. 17, Table 1.) Three and ten weeks after surgery, the animals are anesthetized using a 2 ml intramuscular injection of 11:1 mixture of ketamine hydrochloride and xylazine 20 mg/ml and then killed with a 2 ml intravenous injection of sodium pentobarbital.
The eye globes are enucleated (some of them fixed in neutral buffered formalin 10% solution for 24 hours) and are bisected coronally just anterior to the equator. Gross examination is performed to assess. PCO development. Photographs are taken from behind (Miyake-Apple posterior photographic technique) by using a digital camera fitted to an operating microscope (Leica/Wild MZ-8, Vashaw Scientific, Inc.).
The extent and severity of PCO is scored (see FIG. 17, Table 1) according to methods reported in the literature. The lens capsules are then fixed and evaluated under a microscope (Olumpus, Optical Co. Ltd.) and photographed with a digital camera.

For the compound gramicidin, the “living LECs after rinsing” value in data set [1] (10 or 100 μm gramicidin and PBS) is listed as “no living cells remain”. For the same compound, the “LEC changes after exposure” value in data set [1] (10 or 100 μm gramicidin and PBS, five minutes) is “shrink and large gaps gradually form between the cells. The shrinking cells then gradually round up and burst”.
As to `NS(=O)(=O)c1cc2c(cc1Cl)NCNS2(=O)=O` [DHCT, dihydrochlorothiazide], the “LEC changes after exposure” value in data set [1] (170 or 200 mM NaCl and 200 or 300 μm DHCT, pH ±7.8, five minutes) was “shrink and gradually large gaps form between the cells. The shrinking cells then gradually round up and burst”. Moreover, the “living LECs after wash” value in data set [1] (200 μm DHCT and hyperosmotic ≦200 mM NaCl) is recorded as “no living cells can be observed”. In addition, the “Soemmering's ring” value in the data set with in vivo rabbit eyes is given as “Most eyes did develop some degree of Soemmering's ring”. Moreover, the “intraocular inflammatory reaction and deposits” value in the data set with in vivo rabbit eyes (3 and 10 weeks post-treatment) is “minimal intraocular inflammatory reaction and deposits on the lens capsule surface”. For the same compound, the “development of central PCO (CPCO) and peripheral PCO (PPCO)” value in the data set on in vivo rabbit eyes (three or ten weeks post-treatment) was “No central PCO(CPCO) (the area within the pupillary area) and peripheral PCO (PPCO) (within 6-6.5 mm outside the pupillary area) is found to have developed”. In addition, the “lens epithelial cells in pupil area (phase contrast)” value with in vivo rabbit eyes (three weeks after surgery, no IOLs insertion) is “no remaining lens epithelial cells”.

Source of the values: patent US7875270B2, “Treatment solution and method for preventing posterior capsular opacification by selectively inducing detachment and/or death of lens epithelial cells” (Abbott Medical Optics Inc., priority 2002, dated 2011).
